Experimental data reported in patent USRE49735E1 (BRISTOL-MYERS SQUIBB COMPANY, priority 2010, dated 2023).
Where “and” joins values, the source holds several entries; their conditions need not be identical. Identical values can stand only once.

These compounds were tested against human mGluR5A (Homo sapiens, UniProt P41594) (assay: mGluR5 FLIPR Assay). Settings: positive modulator activity; HEK293 (ZF) cells with human mGluR5A and rat GLAST; Ca++ response to ~EC10 glutamate.
Format: cell-based
Experimental: HEK293 (ZF) cells stably transfected with human mGluR5A (pIRES neo) and the rat glutamate-aspartate transporter (GLAST; pIRES puro) are grown in a monolayer culture at 37° C. in 5% CO2 and fed with Minimum Essential Medium (MEM) supplemented with 10% dialysed fetal bovine serum. 24 hours prior to assay, cells are enzymatically dissociated from the culture flask (Trypsin, 0.25%), spun down (1000 rpm, 3 min), resuspended, and plated on Greiner black clear bottomed PDL-coated 384-well plates at a density of 30 thousand cells/well. […] Plates are incubated in dye at 37° C. in 5% CO2 for 60 minutes prior to delivery of test compounds in assay buffer. Test compounds are incubated with cells in the presence of dye for 10 minutes prior to being read on the FLIPR platform (Molecular Devices). A Ca^++ signal is induced in the assay plates via the delivery of an ˜EC10 concentration of the endogenous agonist 1-glutamate; images are acquired at 1 Hz for 100 seconds post-delivery of agonist stimulus. Positive modulator activity (i.e. the ability of test compounds to increase the Ca^++ response to a sub-maximal concentration of agonist) is normalized to a saturating concentration of a known mGluR5 PAM run in each assay plate. An EC50 concentration of test compounds is derived from 4-parameter logistic curve fits of transformed fluoresence data via proprietary software suite.

Chain of human mGluR5A (P41594 21-1180 isoform P41594-2): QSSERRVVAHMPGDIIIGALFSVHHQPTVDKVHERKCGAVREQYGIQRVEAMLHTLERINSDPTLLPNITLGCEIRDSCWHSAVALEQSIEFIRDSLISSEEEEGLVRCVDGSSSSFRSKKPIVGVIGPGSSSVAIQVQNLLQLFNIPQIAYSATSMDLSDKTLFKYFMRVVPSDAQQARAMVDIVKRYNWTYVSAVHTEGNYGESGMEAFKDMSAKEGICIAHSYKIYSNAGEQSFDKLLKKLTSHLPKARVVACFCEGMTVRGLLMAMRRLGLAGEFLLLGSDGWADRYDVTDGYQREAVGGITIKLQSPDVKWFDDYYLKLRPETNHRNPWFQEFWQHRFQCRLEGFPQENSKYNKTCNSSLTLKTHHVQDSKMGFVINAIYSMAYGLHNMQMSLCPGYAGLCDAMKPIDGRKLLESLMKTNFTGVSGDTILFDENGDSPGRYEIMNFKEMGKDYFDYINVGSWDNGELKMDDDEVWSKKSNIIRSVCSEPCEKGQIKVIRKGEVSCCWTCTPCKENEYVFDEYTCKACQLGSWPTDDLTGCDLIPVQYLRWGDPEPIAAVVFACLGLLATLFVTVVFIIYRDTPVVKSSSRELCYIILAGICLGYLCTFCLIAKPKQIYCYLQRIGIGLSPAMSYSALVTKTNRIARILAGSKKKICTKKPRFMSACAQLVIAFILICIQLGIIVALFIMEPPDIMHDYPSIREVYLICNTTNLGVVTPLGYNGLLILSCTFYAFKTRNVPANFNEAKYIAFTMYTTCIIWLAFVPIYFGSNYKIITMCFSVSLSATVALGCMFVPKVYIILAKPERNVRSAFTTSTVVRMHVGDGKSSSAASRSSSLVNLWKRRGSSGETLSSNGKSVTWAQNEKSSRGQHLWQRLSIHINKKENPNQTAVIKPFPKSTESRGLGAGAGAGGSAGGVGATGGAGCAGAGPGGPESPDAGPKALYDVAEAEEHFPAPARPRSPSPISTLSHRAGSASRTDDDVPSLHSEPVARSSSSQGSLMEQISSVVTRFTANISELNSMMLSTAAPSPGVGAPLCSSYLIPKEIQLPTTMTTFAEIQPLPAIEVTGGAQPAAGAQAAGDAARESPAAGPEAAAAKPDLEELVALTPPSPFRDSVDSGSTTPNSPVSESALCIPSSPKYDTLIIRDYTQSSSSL

| Structure (SMILES) | EC50 |
| --- | --- |
| COc1cccc([C@@H]2OC(=O)N[C@H]2c2cccc(C#Cc3ccc(C(F)(F)F)cc3)c2)c1 (stereo in doubt) [Example 120, (4S,5S)-5-(3-methoxyphenyl)-4-(3-((4-(trifluoromethyl)phenyl)ethynyl)phenyl)oxazolidin-2-one] | > 1000 nM |
| COc1cccc([C@H]2OC(=O)N[C@@H]2c2cccc(C#Cc3ccccc3)c2)c1 [Example 1, (+)-(4R,5R)-5-(3-Methoxyphenyl)-4-(3-(phenylethynyl)phenyl)oxazolidin-2-one] | < 100 nM and 39 nM |
| COc1cccc([C@@H]2OC(=O)N[C@H]2c2cccc(C#Cc3ccccc3)c2)c1 [Example 2, (4S,5S)-5-(3-Methoxyphenyl)-4-(3-(phenylethynyl)phenyl)oxazolidin-2-one] | > 30000 nM |
| COc1cccc([C@H]2OC(=O)N[C@@H]2c2cccc(C#Cc3ccc(F)cc3)n2)c1 [Example 7, (4R,5R)-4-(6-((4-Fluorophenyl)ethynyl)pyridin-2-yl)-5-(3-methoxyphenyl)oxazolidin-2-one] | > 1000 nM |
| COc1cccc([C@H]2OC(=O)N[C@@H]2c2cccc(C#Cc3cccc(F)c3)n2)c1 [Example 8, (4R,5R)-4-(6-((3-Fluorophenyl)ethynyl)pyridin-2-yl)-5-(3-methoxyphenyl)oxazolidin-2-one] | > 1000 nM |
| COc1cccc([C@H]2OC(=O)N[C@@H]2c2cccc(C#Cc3ccccc3F)n2)c1 [Example 9, (4R,5R)-4-(6-((2-Fluorophenyl)ethynyl)pyridin-2-yl)-5-(3-methoxyphenyl)oxazolidin-2-one] | > 1000 nM |
| O=C1N[C@H](c2cccc(C#Cc3ccccc3F)n2)[C@@H](c2ccccc2)O1 [Example 12] | > 1000 nM |
| O=C1N[C@H](c2ccnc(C#Cc3ccccc3)c2)[C@@H](c2ccccc2)O1 [Example 20, (4R,5R)-5-Phenyl-4-(2-(phenylethynyl)pyridin-4-yl)oxazolidin-2-one] | < 100 nM |
| O=C1N[C@H](c2ccnc(C#Cc3ccccn3)c2)[C@@H](c2ccccc2)O1 [Example 22, (4R,5R)-5-Phenyl-4-(2-(pyridin-2-ylethynyl)pyridin-4-yl)oxazolidin-2-one] | > 1000 nM |
| O=C1N[C@H](c2ccnc(C#Cc3cccnc3)c2)[C@@H](c2ccccc2)O1 [Example 23, (4R,5R)-5-Phenyl-4-(2-(pyridin-3-ylethynyl)pyridin-4-yl)oxazolidin-2-one] | < 100 nM |
| O=C1N[C@H](c2cncc(C#Cc3ccccn3)c2)[C@@H](c2cccc(F)c2)O1 [Example 34, (4R,5R)-5-(3-Fluorophenyl)-4-(5-(pyridin-2-ylethynyl)pyridin-3-yl)oxazolidin-2-one] | > 1000 nM |
| O=C1N[C@H](c2cncc(C#Cc3cccnc3)c2)[C@@H](c2cccc(F)c2)O1 [Example 35, (4R,5R)-5-(3-Fluorophenyl)-4-(5-(pyridin-3-ylethynyl)pyridin-3-yl)oxazolidin-2-one] | < 100 nM and 6.3 nM |
| COc1cccc([C@H]2OC(=O)N[C@@H]2c2cccc(C#Cc3cccnc3)c2)c1 [Example 46] | < 100 nM |
| COc1cccc([C@H]2OC(=O)N[C@@H]2c2cccc(C#Cc3ccccn3)c2)c1 [Example 47, (4R,5R)-5-(3-Methoxyphenyl)-4-(3-(pyridin-2-ylethynyl)phenyl)oxazolidin-2-one] | < 100 nM and 7.4 nM |
| COc1cccc([C@H]2OC(=O)N[C@@H]2c2cccc(C#Cc3cccc(C)n3)c2)c1 [Example 48, (4R,5R)-5-(3-Methoxyphenyl)-4-(3-((6-methylpyridin-2-yl)ethnyl)phenyl)oxazolidin-2-one] | > 1000 nM |
| COc1cncc(C#Cc2cccc([C@H]3NC(=O)O[C@@H]3c3cccc(OC)c3)c2)c1 [Example 49] | > 1000 nM |
| COc1cccc([C@H]2OC(=O)N[C@@H]2c2cccc(C#Cc3cncc(Cl)c3)c2)c1 [Example 50, (4R,5R)-4-(3-((5-Chloropyridin-3-yl)ethnyl)phenyl)-5-(3-methoxyphenyl)oxazolidin-2-one] | 100 to 1000 nM and 353 nM |
| COc1cccc([C@H]2OC(=O)N[C@@H]2c2cccc(C#Cc3ccncc3)c2)c1 [Example 51] | < 100 nM |
| COc1cccc([C@H]2OC(=O)N[C@@H]2c2cccc(C#Cc3csc(C)n3)c2)c1 [Example 52, (4R,5R)-5-(3-Methoxyphenyl)-4-(3-((2-methylthiazol-4-yl)ethnyl)phenyl)oxazolidin-2-one] | > 30000 nM |
| COc1cccc([C@H]2OC(=O)N[C@@H]2c2cccc(C#Cc3cccnc3C#N)c2)c1 [Example 53, 3-((3-((4R,5R)-5-(3-Methoxyphenyl)-2-oxooxazolidin-4-yl)phenyl)ethynyl)picolinonitrile] | > 1000 nM |
| COc1cccc([C@H]2OC(=O)N[C@@H]2c2cccc(C#Cc3cccc(C)c3)c2)c1 [Example 54, (4R,5R)-5-(3-Methoxyphenyl)-4-(3-(m-tolylethnyl)phenyl)oxazolidin-2-one] | > 1000 nM |
| COc1cccc([C@H]2OC(=O)N[C@@H]2c2cccc(C#Cc3cccc(C#N)c3)c2)c1 [Example 55] | < 100 nM |
| COc1cccc([C@H]2OC(=O)N[C@@H]2c2cccc(C#Cc3ccnc(C#N)c3)c2)c1 [Example 56, 4-((3-((4R,5R)-5-(3-Methoxyphenyl)-2-oxooxazolidin-4-yl)phenyl)ethynyl)nicolinonitrile] | > 1000 nM |
| COc1cccc([C@H]2OC(=O)N[C@@H]2c2cccc(C#Cc3ccnc(Cl)c3)c2)c1 [Example 57, (4R,5R)-4-(3-((2-Chloropyridin-4-yl)ethynyl)phenyl)-5-(3-methoxyphenyl)oxazolidin-2-one] | > 30000 nM |
| COc1cccc([C@H]2OC(=O)N[C@@H]2c2cccc(C#Cc3cccc(N(C)C)c3)c2)c1 [Example 58, (4R,5R)-4-(3-((3-(Dimethylamino)phenyl)ethnyl)phenyl)-5-(3-methoxyphenyl)oxazolidin-2-one] | > 30000 nM |

Further lines, results first:

| EC50 | Structure (SMILES) |
| --- | --- |
| < 100 nM | O=C1N[C@H](c2cncc(C#Cc3ccccc3)c2)[C@@H](c2cccc(Cl)c2)O1 (single isomer, unassigned) [Example 362] |
| < 100 nM | O=C1N[C@@H](c2cncc(C#Cc3ccccc3)c2)[C@H](c2ccccc2Cl)O1 (single isomer, unassigned) [Example 363] |
| > 1000 nM | O=C1N[C@H](c2cncc(C#Cc3ccccc3)c2)[C@@H](c2ccccc2Cl)O1 (single isomer, unassigned) [Example 364] |
| > 1000 nM | O=C1N[C@@H](c2cccc(C#Cc3ccccc3)n2)[C@H](c2cccnc2)O1 (single isomer, unassigned) [Example 366] |
| > 1000 nM | O=C1N[C@H](c2cccc(C#Cc3ccccc3)n2)[C@@H](c2cccnc2)O1 (single isomer, unassigned) [Example 367] |
| 100 to 1000 nM | O=C1N[C@H](c2cccc(C#Cc3cnccn3)n2)[C@@H](c2ccc(F)cc2)O1 (single isomer, unassigned) [Example 368] |
| > 1000 nM | O=C1N[C@@H](c2cccc(C#Cc3cnccn3)n2)[C@H](c2ccc(F)cc2)O1 (single isomer, unassigned) [Example 369] |
| < 100 nM and 31.8 nM | O=C1N[C@H](c2cccc(C#Cc3ncccc3F)n2)[C@@H](c2ccc(F)cc2)O1 (single isomer, unassigned) [Example 370] |
| > 1000 nM | O=C1NC(c2cccc(C#Cc3ncccc3F)n2)C(c2ccc(F)cc2)O1 (single isomer, unassigned) [Example 371] |
| < 100 nM | O=C1N[C@H](c2cccc(C#Cc3ccnc(F)c3)n2)[C@@H](c2ccc(F)cc2)O1 (single isomer, unassigned) [Example 372] |
| > 1000 nM | O=C1N[C@@H](c2cccc(C#Cc3ccnc(F)c3)n2)[C@H](c2ccc(F)cc2)O1 (single isomer, unassigned) [Example 373] |
| > 1000 nM | O=C1N[C@@H](c2cc(C#Cc3ccccc3)cnc2F)[C@H](c2ccccc2F)O1 (single isomer, unassigned) [Example 374] |
| < 100 nM | O=C1N[C@H](c2cc(C#Cc3ccccc3)cnc2F)[C@@H](c2ccccc2F)O1 (single isomer, unassigned) [Example 375] |
| 100 to 1000 nM | C[C@@]1(c2cccc(C#Cc3ccccc3)n2)NC(=O)O[C@@H]1c1ccccc1F (single isomer, unassigned) [Example 376] |
| > 1000 nM | C[C@]1(c2cccc(C#Cc3ccccc3)n2)NC(=O)O[C@H]1c1ccccc1F (single isomer, unassigned) [Example 377] |
| < 100 nM | C[C@]1(c2cccc(C#Cc3ccccc3)n2)NC(=O)O[C@@H]1c1ccccc1F (single isomer, unassigned) [Example 378] |
| > 1000 nM | C[C@@]1(c2cccc(C#Cc3ccccc3)n2)NC(=O)O[C@H]1c1ccccc1F (single isomer, unassigned) [Example 379] |
| 100 to 1000 nM | C[C@@]1(c2cncc(C#Cc3ccccc3)c2)NC(=O)O[C@H]1c1cc(F)ccc1F (single isomer, unassigned) [Example 406] |
| < 100 nM | C[C@]1(c2cncc(C#Cc3ccccc3)c2)NC(=O)O[C@@H]1c1cc(F)ccc1F (single isomer, unassigned) [Example 407] |
| > 1000 nM | COc1cccc([C@@H]2OC(=O)N[C@H]2c2cccc(C#Cc3ccccc3F)c2)c1 (stereo in doubt) [Example 122, (4S,5S)-4-(3-((2-fluorophenyl)ethynyl)phenyl)-5-(3-methoxyphenyl)oxazolidin-2-one] |
